Measured values taken from patent US20150175545A1, “Preparation Method of Fluoro-Substituted Deuterated Diphenylurea” (SUZHOU ZELGEN BIOPHARMACEUTICAL CO., LTD, priority 2012, published 2015).
Values joined by “and” are separate entries in the source; they are usually repeats but may differ in a detail not shown here. Equal entries are not always repeated. Where two headings read alike, the source gives them in different places.

Key:
[1] = Pharmacokinetic evaluation of CM4309.TsOH, CM4309.HCl and CM4309.H2O in SD rats; assay type: in vivo; settings: for AUCINF_obs / AUClast / Cmax / HL_Lambda_z / MRTINF_obs / Tmax / AUC(0-t) / AUC(0-inf) / MRT inf: 3 mg/kg (calculated by CM4309) intragastric, suspension in 0.5% CMC, CM4309 in plasma; for AUClast (Area Under Curve, Plasma Exposure) relative to CM4309.H2O / Cmax relative to CM4309.H2O: SD rats, 3 mg/kg intragastric, ratio to CM4309.H2O; for AUC(0-inf): read-out: AUCINF_obs; for MRT inf: read-out: MRTINF_obs
Procedure: Twelve male SD rats, weighing about 170 g, were randomly separated into […] and four rats in each group, and fasted overnight. The rats were administrated intragastric ally at a dose of 3 mg/kg (in a concentration of 1 mg/mL calculated by CM4309, and suspended in 0.5% CMC in purified water) of CM4309.TsOH, CM4309.HCl or CM4309.H2O. After administration, blood samples were collected at 0.25, 0.5, 1, 2, 4, 6, 8, 12, 24, 36 and 48 h. The blood samples were centrifuged for 5 minutes at 5000 rpm to separate the plasma. The concentration of CM4309 in plasma was measured by LC/MS/MS to compare the PK difference between CM4309 salts and CM4309 (see Table 1).

[2] = Pharmacokinetic evaluation of CM4309.TsOH and CM4309.H2O in Beagle dogs; assay type: in vivo; settings: for AUClast / Cmax / Tmax / AUC(0-t): 2.5 mg/kg (calculated by CM4309) oral in capsule, 2×2 crossover, CM4309 in plasma
Procedure: Four female Beagle dogs, 7-9 months old, weighing about 8 kg, were randomly separated into two groups and two dogs in each group, and fasted overnight. The dogs were administrated orally at a dose of 2.5 mg/kg (calculated by CM4309) of CM4309.TsOH or CM4309.H2O in capsule with 2×2 crossover design. Blood samples were collected before administration and at 0.25, 0.5, 1, 2, 4, 6, 8, 12, 24, 36 and 48 h after administration. The blood samples were centrifuged for 10 minutes at 3500 rpm to separate the plasma. The concentration of CM4309 in plasma was measured by LC/MS/MS to compare the PK difference between CM4309 salts and CM4309 (see Table 2).

[3] = individual rat, hydrochloride, 3 mg/kg
[4] = male, SD, rat, plasma, po, 3 mg/kg, Mean of 4 rats
[5] = male, SD, rat, plasma, po, 3 mg/kg, Mean of 4 rats, read-out: Cmax
[6] = male, SD, rat, plasma, po, 3 mg/kg, Mean of 4 rats, read-out: Tmax
[7] = male, SD, rat, plasma, po, 3 mg/kg, individual rat
[8] = male, SD, rat, plasma, po, 3 mg/kg, individual rat, read-out: Tmax
[9] = individual rat, p-toluenesulfonate, 3 mg/kg
[10] = Beagle dogs, 2.5 mg/kg oral in capsule, ratio to CM4309.H2O
[11] = individual dog, p-toluenesulfonate, 2.5 mg/kg

[2H]C([2H])([2H])NC(=O)c1cc(Oc2ccc(NC(=O)Nc3ccc(Cl)c(C(F)(F)F)c3)c(F)c2)ccn1 [CM4309.H2O]
AUCINF_obs ([1]; Mean of 4 rats): 0.664 µg·h/mL
AUClast ([1]; Mean of 4 rats): 0.643 µg·h/mL
Cmax ([1]; Mean of 4 rats): 0.0452 µg/mL
HL_Lambda_z ([1]; Mean of 4 rats): 7.62 h
MRTINF_obs ([1]; Mean of 4 rats): 13.55 h
Tmax ([1]; Mean of 4 rats): 6.5 h
AUCINF_obs ([1]; individual rat, 3 mg/kg): 0.701 µg·h/mL and 0.827 µg·h/mL and 0.657 µg·h/mL and 0.47 µg·h/mL
AUClast ([1]; individual rat, 3 mg/kg): 0.675 µg·h/mL and 0.806 µg·h/mL and 0.635 µg·h/mL and 0.459 µg·h/mL
Cmax ([1]; individual rat, 3 mg/kg): 0.0526 µg/mL and 0.0533 µg/mL and 0.0429 µg/mL and 0.0318 µg/mL
HL_Lambda_z ([1]; individual rat, 3 mg/kg): 8.73 h and 9.26 h and 6.41 h and 6.08 h
MRTINF_obs ([1]; individual rat, 3 mg/kg): 14.87 h and 14.06 h and 13 h and 12.25 h
Tmax ([1]; individual rat, 3 mg/kg): 6 h and 4 h and 8 h
AUClast ([2]; Mean of 4 dogs): 0.404 µg·h/mL
Cmax ([2]; Mean of 4 dogs): 0.028 µg/mL
Tmax ([2]; Mean of 4 dogs): 20 h
AUClast ([2]; individual dog, 2.5 mg/kg): 0.319 µg·h/mL and 0.829 µg·h/mL and 0.243 µg·h/mL and 0.224 µg·h/mL
Cmax ([2]; individual dog, 2.5 mg/kg): 0.0346 µg/mL and 0.05 µg/mL and 0.0111 µg/mL and 0.0164 µg/mL
Tmax ([2]; individual dog, 2.5 mg/kg): 24 h and 8 h

Cl.[2H]C([2H])([2H])NC(=O)c1cc(Oc2ccc(NC(=O)Nc3ccc(Cl)c(C(F)(F)F)c3)c(F)c2)ccn1 [CM4309.HCl, 4-(4-(3-(4-chloro-3-(trifluoromethyl)phenyl]ureido)-3-fluorophenoxy)-N-(methyl-d3)picolinamide hydrochloride]
HL_Lambda_z ([1]; Mean of 4 rats): 8.25 h
AUClast (Area Under Curve, Plasma Exposure) relative to CM4309.H2O [1]: 8.7 folds
Cmax relative to CM4309.H2O [1]: 8.4 folds
AUCINF_obs [1, 3]: 6.634 µg·h/mL and 7.151 µg·h/mL and 4.379 µg·h/mL
AUClast [1, 3]: 6.514 µg·h/mL and 7.021 µg·h/mL and 4.258 µg·h/mL
Cmax [1, 3]: 0.457 µg/mL and 0.46 µg/mL and 0.281 µg/mL
HL_Lambda_z [1, 3]: 8.17 h and 7.77 h and 8.32 h and 8.74 h
MRTINF_obs [1, 3]: 12.93 h and 12.58 h and 15.62 h
Tmax [1, 3]: 8 h
Tmax ([1]; male, SD, in vivo, po, individual rat, read-out: Tmax): 4 h
AUC(0-t) [1, 4]: 5.57 µg·h/mL
AUC(0-inf) [1, 4]: 5.69 µg·h/mL
Cmax [1, 5]: 0.379 µg/mL
MRT inf [1, 4]: 13.8 h
Tmax [1, 6]: 5.5 h
AUC(0-t) [1, 7]: 4.49 µg·h/mL
AUC(0-inf) [1, 7]: 4.61 µg·h/mL
Cmax ([1]; male, SD, rat, plasma, po, 3 mg/kg, individual rat, read-out: Cmax): 0.316 µg/mL
MRT inf [1, 7]: 13.9 h
Tmax [1, 8]: 6 h

Cc1ccc(S(=O)(=O)O)cc1.[2H]C([2H])([2H])NC(=O)c1cc(Oc2ccc(NC(=O)Nc3ccc(Cl)c(C(F)(F)F)c3)c(F)c2)ccn1 [CM4309.TsOH, 4-(4-(3-(4-chloro-3-(trifluoromethyl)phenyl]ureido)-3-fluorophenoxy)-N-(methyl-d3)picolinamide p-toluenesulfonate]
HL_Lambda_z ([1]; Mean of 4 rats): 7.91 h
AUClast (Area Under Curve, Plasma Exposure) relative to CM4309.H2O [1]: 11.2 folds
Cmax relative to CM4309.H2O [1]: 10.7 folds
AUCINF_obs [1, 9]: 5.631 µg·h/mL and 7.38 µg·h/mL and 10.651 µg·h/mL
AUClast [1, 9]: 5.542 µg·h/mL and 7.237 µg·h/mL and 10.406 µg·h/mL
Cmax [1, 9]: 0.312 µg/mL and 0.402 µg/mL and 0.518 µg/mL and 0.696 µg/mL
HL_Lambda_z [1, 9]: 8.55 h and 7.37 h and 7.48 h and 8.25 h
MRTINF_obs [1, 9]: 12.05 h and 12.72 h and 13.6 h
Tmax [1, 9]: 4 h
AUC(0-t) [1, 4]: 7.18 µg·h/mL
AUC(0-inf) [1, 4]: 7.34 µg·h/mL
Cmax [1, 5]: 0.482 µg/mL
MRT inf [1, 4]: 13.3 h
Tmax [1, 6]: 5.5 h
AUC(0-t) [1, 7]: 5.54 µg·h/mL
AUC(0-inf) [1, 7]: 5.7 µg·h/mL
MRT inf [1, 7]: 14.8 h
Tmax [1, 8]: 6 h
AUClast relative to CM4309.H2O [2, 10]: 12.1 folds
Cmax relative to CM4309.H2O [2, 10]: 26 folds
AUC(0-t) ([2]; female, Beagle, dog, plasma, po, 2.5 mg/kg, Mean of 4 dogs): 4.87 µg·h/mL
Cmax ([2]; female, Beagle, dog, plasma, po, 2.5 mg/kg, Mean of 4 dogs, read-out: Cmax): 0.728 µg/mL
AUC(0-t) ([2]; female, Beagle, dog, plasma, po, 2.5 mg/kg, individual dog): 5.25 µg·h/mL
Tmax ([2]; female, Beagle, individual dog, read-out: Tmax): 2 h
AUClast [2, 11]: 5.362 µg·h/mL and 5.045 µg·h/mL and 3.827 µg·h/mL
Cmax [2, 11]: 0.996 µg/mL and 0.437 µg/mL and 0.483 µg/mL
